# Source: the CheMixHub viscosity set
# ± gives the uncertainty stated by the source.
# Test: xn = mol fraction of the nth substance listed
smiles,measurement,setting,value
ClC(Cl)(Cl)Cl + CCCCCO,viscosity,"298.15 K, 101 kPa, x2 = 0.0207",0.912 ± 0.009 mPa·s
same,viscosity,"298.15 K, 101 kPa, x2 = 0.0826",0.971 ± 0.009 mPa·s
same,viscosity,"298.15 K, 101 kPa, x2 = 0.3114",1.306 ± 0.012 mPa·s
same,viscosity,"298.15 K, 101 kPa, x2 = 0.4575",1.62 ± 0.015 mPa·s
same,viscosity,"298.15 K, 101 kPa, x2 = 0.5771",1.884 ± 0.018 mPa·s
same,viscosity,"298.15 K, 101 kPa, x2 = 0.8017",2.761 ± 0.025 mPa·s
same,viscosity,"308.15 K, 101 kPa, x2 = 0.0207",0.798 ± 0.008 mPa·s
same,viscosity,"308.15 K, 101 kPa, x2 = 0.0826",0.84 ± 0.008 mPa·s
same,viscosity,"308.15 K, 101 kPa, x2 = 0.3114",1.03 ± 0.01 mPa·s
same,viscosity,"308.15 K, 101 kPa, x2 = 0.4575",1.241 ± 0.012 mPa·s
same,viscosity,"308.15 K, 101 kPa, x2 = 0.5771",1.488 ± 0.014 mPa·s
same,viscosity,"308.15 K, 101 kPa, x2 = 0.8017",2.103 ± 0.02 mPa·s
same,viscosity,"318.15 K, 101 kPa, x2 = 0.0207",0.708 ± 0.007 mPa·s
same,viscosity,"318.15 K, 101 kPa, x2 = 0.0826",0.741 ± 0.007 mPa·s
same,viscosity,"318.15 K, 101 kPa, x2 = 0.3114",0.886 ± 0.009 mPa·s
same,viscosity,"318.15 K, 101 kPa, x2 = 0.4575",1.037 ± 0.01 mPa·s
same,viscosity,"318.15 K, 101 kPa, x2 = 0.5771",1.199 ± 0.011 mPa·s
same,viscosity,"318.15 K, 101 kPa, x2 = 0.8017",1.647 ± 0.015 mPa·s
CCOC(=O)c1ccccc1O + CCCCCOC(C)=O,viscosity,"298.15 K, 101 kPa, x2 = 0.5",1.045 ± 0.01 mPa·s
COc1ccc(C)cc1 + CCCCCOC(C)=O,viscosity,"298.15 K, 101 kPa, x1 = 0.5",0.8602 ± 0.0085 mPa·s
COc1cccc(C)c1 + CCCCCOC(C)=O,viscosity,"298.15 K, 101 kPa, x1 = 0.5",0.8784 ± 0.0087 mPa·s
CCCC(C)=O + CCCCN,viscosity,"303.15 K, 101.33 kPa, x2 = 0.1",0.608 ± 0.017 mPa·s
same,viscosity,"303.15 K, 101.33 kPa, x2 = 0.1974",0.752 ± 0.021 mPa·s
same,viscosity,"303.15 K, 101.33 kPa, x2 = 0.3754",0.936 ± 0.026 mPa·s
same,viscosity,"303.15 K, 101.33 kPa, x2 = 0.5189",1.023 ± 0.028 mPa·s
same,viscosity,"303.15 K, 101.33 kPa, x2 = 0.6418",1.061 ± 0.029 mPa·s
same,viscosity,"303.15 K, 101.33 kPa, x2 = 0.7158",0.949 ± 0.026 mPa·s
same,viscosity,"303.15 K, 101.33 kPa, x2 = 0.8252",0.825 ± 0.023 mPa·s
same,viscosity,"303.15 K, 101.33 kPa, x2 = 0.8978",0.709 ± 0.02 mPa·s
CCN(CC)CC + CCCCN,viscosity,"303.15 K, 101.33 kPa, x1 = 0.1038",0.4186 ± 0.0053 mPa·s
same,viscosity,"303.15 K, 101.33 kPa, x1 = 0.2009",0.4019 ± 0.0052 mPa·s
same,viscosity,"303.15 K, 101.33 kPa, x1 = 0.4065",0.3761 ± 0.0051 mPa·s
same,viscosity,"303.15 K, 101.33 kPa, x1 = 0.5021",0.3681 ± 0.0051 mPa·s
same,viscosity,"303.15 K, 101.33 kPa, x1 = 0.5996",0.3611 ± 0.005 mPa·s
same,viscosity,"303.15 K, 101.33 kPa, x1 = 0.801",0.357 ± 0.005 mPa·s
same,viscosity,"303.15 K, 101.33 kPa, x1 = 0.8898",0.3569 ± 0.005 mPa·s
same,viscosity,"313.15 K, 101.33 kPa, x1 = 0.1038",0.3692 ± 0.0051 mPa·s
same,viscosity,"313.15 K, 101.33 kPa, x1 = 0.2009",0.3555 ± 0.005 mPa·s
same,viscosity,"313.15 K, 101.33 kPa, x1 = 0.4065",0.3345 ± 0.0049 mPa·s
same,viscosity,"313.15 K, 101.33 kPa, x1 = 0.5021",0.329 ± 0.0049 mPa·s
same,viscosity,"313.15 K, 101.33 kPa, x1 = 0.5996",0.3244 ± 0.0049 mPa·s
same,viscosity,"313.15 K, 101.33 kPa, x1 = 0.801",0.3216 ± 0.0049 mPa·s
same,viscosity,"313.15 K, 101.33 kPa, x1 = 0.8898",0.3228 ± 0.0049 mPa·s
CCCC(C)=O + CCCCN(CCCC)CCCC,viscosity,"298.15 K, 101 kPa, x2 = 0.0499",0.49 ± 0.016 mPa·s
same,viscosity,"298.15 K, 101 kPa, x2 = 0.1",0.521 ± 0.017 mPa·s
same,viscosity,"298.15 K, 101 kPa, x2 = 0.1499",0.554 ± 0.017 mPa·s
same,viscosity,"298.15 K, 101 kPa, x2 = 0.2",0.588 ± 0.017 mPa·s
same,viscosity,"298.15 K, 101 kPa, x2 = 0.2498",0.624 ± 0.017 mPa·s
same,viscosity,"298.15 K, 101 kPa, x2 = 0.3",0.66 ± 0.017 mPa·s
same,viscosity,"298.15 K, 101 kPa, x2 = 0.3999",0.735 ± 0.017 mPa·s
same,viscosity,"298.15 K, 101 kPa, x2 = 0.4997",0.81 ± 0.017 mPa·s
same,viscosity,"298.15 K, 101 kPa, x2 = 0.5997",0.889 ± 0.017 mPa·s
same,viscosity,"298.15 K, 101 kPa, x2 = 0.7002",0.974 ± 0.018 mPa·s
same,viscosity,"298.15 K, 101 kPa, x2 = 0.7997",1.065 ± 0.018 mPa·s
same,viscosity,"298.15 K, 101 kPa, x2 = 0.8463",1.108 ± 0.018 mPa·s
same,viscosity,"298.15 K, 101 kPa, x2 = 0.899",1.165 ± 0.018 mPa·s
same,viscosity,"298.15 K, 101 kPa, x2 = 0.956",1.227 ± 0.018 mPa·s
same,viscosity,"303.15 K, 101 kPa, x2 = 0.0499",0.465 ± 0.016 mPa·s
same,viscosity,"303.15 K, 101 kPa, x2 = 0.1",0.49 ± 0.016 mPa·s
same,viscosity,"303.15 K, 101 kPa, x2 = 0.1499",0.521 ± 0.017 mPa·s
same,viscosity,"303.15 K, 101 kPa, x2 = 0.2",0.551 ± 0.017 mPa·s
same,viscosity,"303.15 K, 101 kPa, x2 = 0.2498",0.584 ± 0.017 mPa·s
same,viscosity,"303.15 K, 101 kPa, x2 = 0.3",0.614 ± 0.017 mPa·s
same,viscosity,"303.15 K, 101 kPa, x2 = 0.3999",0.681 ± 0.017 mPa·s
same,viscosity,"303.15 K, 101 kPa, x2 = 0.4997",0.75 ± 0.017 mPa·s
same,viscosity,"303.15 K, 101 kPa, x2 = 0.5997",0.821 ± 0.017 mPa·s
same,viscosity,"303.15 K, 101 kPa, x2 = 0.7002",0.898 ± 0.017 mPa·s
same,viscosity,"303.15 K, 101 kPa, x2 = 0.7997",0.977 ± 0.018 mPa·s
same,viscosity,"303.15 K, 101 kPa, x2 = 0.8463",1.02 ± 0.018 mPa·s
same,viscosity,"303.15 K, 101 kPa, x2 = 0.899",1.064 ± 0.018 mPa·s
same,viscosity,"303.15 K, 101 kPa, x2 = 0.956",1.118 ± 0.018 mPa·s
same,viscosity,"308.15 K, 101 kPa, x2 = 0.0499",0.436 ± 0.016 mPa·s
same,viscosity,"308.15 K, 101 kPa, x2 = 0.1",0.462 ± 0.016 mPa·s
same,viscosity,"308.15 K, 101 kPa, x2 = 0.1499",0.491 ± 0.016 mPa·s
same,viscosity,"308.15 K, 101 kPa, x2 = 0.2",0.519 ± 0.017 mPa·s
same,viscosity,"308.15 K, 101 kPa, x2 = 0.2498",0.547 ± 0.017 mPa·s
same,viscosity,"308.15 K, 101 kPa, x2 = 0.3",0.575 ± 0.017 mPa·s
same,viscosity,"308.15 K, 101 kPa, x2 = 0.3999",0.636 ± 0.017 mPa·s
same,viscosity,"308.15 K, 101 kPa, x2 = 0.4997",0.698 ± 0.017 mPa·s
same,viscosity,"308.15 K, 101 kPa, x2 = 0.5997",0.764 ± 0.017 mPa·s
same,viscosity,"308.15 K, 101 kPa, x2 = 0.7002",0.832 ± 0.017 mPa·s
same,viscosity,"308.15 K, 101 kPa, x2 = 0.7997",0.902 ± 0.017 mPa·s
same,viscosity,"308.15 K, 101 kPa, x2 = 0.8463",0.936 ± 0.018 mPa·s
same,viscosity,"308.15 K, 101 kPa, x2 = 0.899",0.979 ± 0.018 mPa·s
same,viscosity,"308.15 K, 101 kPa, x2 = 0.956",1.025 ± 0.018 mPa·s
CCN(CC)CC + CCCCO,viscosity,"303.15 K, 101 kPa, x1 = 0.01087",2.223 ± 0.015 mPa·s
same,viscosity,"303.15 K, 101 kPa, x1 = 0.02221",2.193 ± 0.015 mPa·s
same,viscosity,"303.15 K, 101 kPa, x1 = 0.0326",2.162 ± 0.014 mPa·s
same,viscosity,"303.15 K, 101 kPa, x1 = 0.04176",2.133 ± 0.014 mPa·s
same,viscosity,"303.15 K, 101 kPa, x1 = 0.05247",2.098 ± 0.014 mPa·s
same,viscosity,"303.15 K, 101 kPa, x1 = 0.06249",2.076 ± 0.014 mPa·s
same,viscosity,"303.15 K, 101 kPa, x1 = 0.07262",2.052 ± 0.014 mPa·s
same,viscosity,"303.15 K, 101 kPa, x1 = 0.08419",2.019 ± 0.013 mPa·s
same,viscosity,"303.15 K, 101 kPa, x1 = 0.09512",1.991 ± 0.013 mPa·s
